Measurements: patent publication US20230295255A1, “ANNEXIN A1-DERIVED POLYPEPTIDE ANALOGUES” (Reso Ther Pharma A/S, priority 2020, published 2023)
Ends that are not written are not given here.

Assays:
[1] = Determination of terminal half times after intravenous injection in rats (plasma, LC/MS-MS); design: species or system Male Wistar rats; conditions: in vivo, rat, read-out: terminal half time (t½)
Method: Male Wistar rats (Crl:WI(Han), Charles River, Germany, weight 300 g±20 g were kept in transparent polycarbonate cages (floor area: 1500 cm^2—height: at least 21 cm) with two in each cage, males and females separated at a temperature of 21° C.±3° C. and relative humidity of 55%±15% with a 12 hours light and 12 hours darkness (Light on from 06:00 to 18:00 h). Following a minimum of five days acclimatization the animals received an intravenous injection of test item through the tail vein given over 60 seconds using a butterfly syringe with volume adjusted according to the most recent body weight data. The butterfly was flushed with 0.4 mL 0.9% NaCl immediately after injection. […]. The dose volume was 5 mL/kg body weight.
The following doses of test item was given: 0.1, 1 and 10 mg/kg in 5% glucose; 1.0 mM acetic acid. Six animals were treated on each dose level.
(§1) On the day of dosing blood samples of approximately 0.4 mL was drawn using the sublingual method. The blood was sampled into a collecting tube containing K2EDTA as anticoagulant. After collection, the collecting tube was immediately labelled and placed in ice water (sufficient to cover the blood entirely) until centrifugation. Within 20 minutes after blood sampling, blood was centrifuged for 8 minutes at 2150 G, at +4° C.). The entire plasma sample was transferred to Eppendorf microcentrifuge tubes (Polypropylene tubes with Eppendorf Safe-Lock lid, Sigma, Denmark). Within 30 minutes after centrifugation, plasma was snap frozen on dry ice and stored at −70° C. or below.
Time point for blood sampling: 2, 5, 10 and 20 min from completion of dosing.
Plasma concentration of the test item was measured by use of LC/MS-MS.

[2] = Determination of terminal half times after intravenous injection in beagle dogs (plasma, LC/MS-MS); assay type: in vivo; conditions: dog; for half-life: in vivo, intravenous, read-out: terminal half time (t½)
Method: 6 beagle dogs, 3 males and 3 females, HsdRcc:DOBE from Marshall BioResources, F-03800 Gannat, France. Age 5-6 months, weight 6-8 kg were kept 21° C.±3° C. with relative humidity of 55%±15% with 12 hours light and 12 hours darkness (Light on from 06:00 to 18:00 h). Male and females kept separate.
Following a pre-treatment period of a minimum of two weeks the animals received an intravenous injection of test item through the cephalic vein given over 5 min using a butterfly syringe with volume adjusted according to the most recent body weight data. The butterfly was flushed with 5 ml 0.9% NaCl immediately after injection. The dose volume was 5 mL/kg body weight. One male and one female were treated at each dose level.
The following doses of test item was given: 2, 6 and 10 mg/kg in 5% glucose; 1.0 mM acetic acid. One male and one female were treated on each dose level. For the control peptide the doses given were: 1, 3 and 10 mg/kg.
as §1, with “Blood samples for determination” for “On the day”, “plasma levels of test item” for “dosing blood samples”, “mL per sample” for “mL”, “from” for “using”, “contralateral cephalic vein.” for “sublingual method.”
Plasma concentration of test item and control peptide was measured by use of LC/MS-MS.

[3] = Body weight and liver weight in experimental model of Nonalcoholic Steatohepatitis (HFD mice); assay type: in vivo, C57BL/6 mice; conditions: end of 6 weeks treatment, i.p. once daily 5 days a week, AnxA1 1 mg/kg/day, Test Item A 250 μg/kg/day
Method: (§2) Male C57BL/6 mice were housed (7-9/cage) in pathogen free conditions and maintained at constant room temperature (20-22° C.) with free access to water and food under a 12 h light/dark cycle (lights on at 07:00 h). […] This diet leads within 16 weeks to steatohepatitis associated with obesity and insulin resistance, which mimics what is seems in humans suffering from NASH. The control group received ad libitum normal chow for 16 weeks. The body weight for each mouse was recorded weekly by using a dedicated digital balance (each Friday afternoon—starting from 5 pm).
(§3) Mice were divided in experimental groups as below: • A: Non HFD: Time control group: Had access to standard chow diet throughout the study period • B: Vehicle: Vehicle treatment group: Received HFD+Vehicle treatment (sterile saline injections) once daily • C: AnxA1: AnnexinA1 treatment group: Received HFD+Annexin A1 full-length protein at a dose of 1 mg/kg/day. • D: Test Item A: Test compound A group: Received HDF+250 μg/kg/day of Test compound A=[…] (SEQ ID NO:4); (AnxA1 (2-46 Val24Leu).
Treatment was commended following 10 weeks HFD and was given as a once daily intraperitoneal given 5 days a week (Monday-Friday) for 6 weeks. The animals were kept on HFD during the 6 weeks treatment period. […]

[4] = Liver injury assessment: blood levels of alanine aminotransferase (ALT) in HFD NASH model; assay type: in vivo, C57BL/6 mice; conditions: HFD mice, after 6 weeks treatment, i.p.; AnxA1 1 mg/kg/day, Test Item A 250 μg/kg/day
Method: as §2
Liver injury was assessed before and after treatment with test compound, control compound or vehicle by evaluating blood levels of alanine aminotransferase (ALT) with a spectrophotometric kit. Blood sampling was carried out by retro-orbital bleeding.
as §3, with “Val24Leu). […]” for “Val24Leu).”

[5] = tested on: TNF-α; assay: Low grade inflammation: liver expression level of TNF-α by real time PCR in HFD NASH model; assay type: in vivo, C57BL/6 mice; conditions: HFD mice, AnxA1 1 mg/kg/day, Test Item A 250 μg/kg/day
Method: as §2
Low inflammation in the livers was determined by the expression level of TNF-α measured by real time PCR using a commercial available tracer.
as §3
Treatment was commended following 10 weeks HFD and was given as a once daily intraperitoneal given 5 days a week (Monday-Friday) for 6 weeks. […]

Row | half-life ([1]; 0.1 mg/kg) | half-life ([1]; 1 mg/kg) | half-life ([1]; 10 mg/kg) | terminal half time (t½) of test item, times longer than the control peptide ([2]; single intravenous dosing) | half-life ([2]; 2 mg/kg) | half-life ([2]; 6 mg/kg) | half-life ([2]; 10 mg/kg) | half-life ([2]; 1 mg/kg) | half-life ([2]; 3 mg/kg) | Molecule | Bodyweight, mean value per group [3] | Liver Weight, mean value per group [3] | ALT (blood alanine aminotransferase) [4] | Relative expression levels of TNF-α with the mean expression in group B (vehicle) set to 1 [5]
1 | 3.18 min | 2.87 min | 5.85 min | up to 4.8 times | 9.16 min | 19.8 min | 28.3 min |  |  | AMVSEFLKQAWFIENEEQEYVQTLKSSKGGPGSAVSPYPTFNPSS [Test Item A] |  |  |  | 
2 |  |  |  |  |  |  | 5.86 min | 5.57 min | 5.69 min | AMVSEFLKQAWFIENEEQEYVQTLKSSKGGPGSAVSPYPTFNPSSDV [control peptide, reference compound] |  |  |  | 
3 |  |  |  |  |  |  |  |  |  | AnxA1: full length Annexin A1 protein (Homo sapiens, SEQ ID NO:1) (protein, listed as Homo Sapiens) MAMVSEFLKQAWFIENEEQEYVQTVKSSKGGPGSAVSPYPTFNPSSDVAALHKAIMVKGVDEATIIDILTKRNNAQRQQIKAAYLQETGKPLDETLKKALTGHLEEVVLALLKTPAQFDADELRAAMKGLGTDEDTLIEILASRTNKEIRDINRVYREELKRDLAKDITSDTSGDFRNALLSLAKGDRSEDFGVNEDLADSDARALYEAGERRKGTDVNVFNTILTTRSYPQLRRVFQKYTKYSKHDMNKVLDLELKGDIEKCLTAIVKCATSKPAFFAEKLHQAMKGVGTRHKALIRIMVSRSEIDMNDIKAFYQKMYGISLCQAILDETKGDYEKILVALCGGN | 32.5 g | 2.0 g | 100 u/L | 1.17±023
